We go through two molecules from paper PMC6155021, “Ancient and modern anticonvulsants act synergistically in a KCNQ potassium channel binding pocket” (Nature Communications, 2018).

Details of series [1]: method as in PMID 24781306. As to conditions: cited from earlier work.
In series [2] the test system is KCNQ2–5. As to conditions: cited from earlier work.
Series [3] concerns the target T1, KCNQ2 (Homo sapiens, UniProt O43526). As to the kind of experiment: Two-electrode voltage-clamp of homomeric KCNQ2 in Xenopus oocytes. The class given is cell-based. As to conditions: KCNQ2; 1 µM. An excerpt:
(§1) cRNA transcripts encoding human KCNA1, KCNQ1, KCNQ2, KCNQ3, KCNQ4, or KCNQ5 were generated by in vitro transcription using the T7 polymerase message machine kit (Thermo Fisher Scientific), after vector linearization, from cDNA sub-cloned into plasmids incorporating X. laevis β-globin 5′ and 3′ UTRs flanking the coding region to enhance translation and cRNA stability. cRNA was quantified by spectrophotometry. Mutant cDNAs were generated by site-directed mutagenesis using a QuikChange kit according to manufacturer’s protocol (Stratagene, San Diego, CA) and corresponding cRNAs prepared as above. Defolliculated stage V and VI X. laevis oocytes (Ecocyte Bioscience, Austin, TX) were injected with Kv channel α subunit cRNAs (10 ng total per oocyte). Oocytes were incubated at 16 °C in Barth’s saline solution (Ecocyte) containing penicillin and streptomycin, with daily washing, for 3–5 days prior to two-electrode voltage-clamp (TEVC) recording.
(§2) Oocytes were placed in a small-volume oocyte bath (Warner) and viewed with a dissection microscope. Chemicals were sourced from Sigma. Bath solution was (in mM): 96 NaCl, 4 KCl, 1 MgCl2, 1 CaCl2, 10 HEPES (pH 7.6). […] MTX (DMSO), sorbic acid (ethanol), and glutaconic acid (molecular grade H2O) were stored at −20 °C as 1 M stocks. Oleamide was stored as a 1 mM stock in ethanol at 4 °C. Palmitic acid was conjugated with bovine serum albumin as a 1 mM stock and stored at −20 °C. All compounds were diluted to working concentrations each experimental day. All compounds were introduced to the recording bath via gravity perfusion at a constant flow of 1 ml/min for 3 min prior to recording. Pipettes were of 1–2 MΩ resistance when filled with 3 M KCl. Currents were recorded in response to pulses between −80 and +40 mV at 20 mV intervals, or a single pulse to +40 mV, from a holding potential of −80 mV, to yield current–voltage relationships, current magnitude, and for quantifying activation rate. TEVC data analysis was performed with Clampfit10.2 (Molecular Devices) and Graphpad Prism software (GraphPad, San Diego, CA, USA); values are stated as mean ± SEM. Normalized tail currents were plotted versus prepulse voltage and fitted with a single Boltzmann function:1 g=A1-A2/1+expV12-Vy+A2, where g is the normalized tail conductance, A1 is the initial value at −∞, A2 is the final value at +∞, V1/2 is the half-maximal voltage of activation, and Vs the slope factor. Activation and deactivation kinetics were fitted with single-exponential functions.
Background: Two-electrode voltage clamp is typically applied to oocytes expressing channels or transporters.

Series [4] has as its target KCNQ2/3 channels (Homo sapiens, UniProt O43525+O43526). In words: Two-electrode voltage-clamp of KCNQ2/3 channels expressed in Xenopus laevis oocytes. The class given is cell-based.
Excerpt: as §1, §2

The target in series [5] is KCNQ5 (Homo sapiens, UniProt Q9NR82). In words: cell-based. It counts as cell-based. The note with it: KCNQ5; 1 µM.
Excerpt: as §1, §2

For series [6], the target named is KCNQ3* (KCNQ3-A315T) (Homo sapiens, UniProt O43525, A315T). As to the kind of experiment: cell-based. It counts as cell-based. The note with it: KCNQ3*; 1 µM.
Sequence of KCNQ3* (KCNQ3-A315T) (O43525 whole entry A315T, looked up): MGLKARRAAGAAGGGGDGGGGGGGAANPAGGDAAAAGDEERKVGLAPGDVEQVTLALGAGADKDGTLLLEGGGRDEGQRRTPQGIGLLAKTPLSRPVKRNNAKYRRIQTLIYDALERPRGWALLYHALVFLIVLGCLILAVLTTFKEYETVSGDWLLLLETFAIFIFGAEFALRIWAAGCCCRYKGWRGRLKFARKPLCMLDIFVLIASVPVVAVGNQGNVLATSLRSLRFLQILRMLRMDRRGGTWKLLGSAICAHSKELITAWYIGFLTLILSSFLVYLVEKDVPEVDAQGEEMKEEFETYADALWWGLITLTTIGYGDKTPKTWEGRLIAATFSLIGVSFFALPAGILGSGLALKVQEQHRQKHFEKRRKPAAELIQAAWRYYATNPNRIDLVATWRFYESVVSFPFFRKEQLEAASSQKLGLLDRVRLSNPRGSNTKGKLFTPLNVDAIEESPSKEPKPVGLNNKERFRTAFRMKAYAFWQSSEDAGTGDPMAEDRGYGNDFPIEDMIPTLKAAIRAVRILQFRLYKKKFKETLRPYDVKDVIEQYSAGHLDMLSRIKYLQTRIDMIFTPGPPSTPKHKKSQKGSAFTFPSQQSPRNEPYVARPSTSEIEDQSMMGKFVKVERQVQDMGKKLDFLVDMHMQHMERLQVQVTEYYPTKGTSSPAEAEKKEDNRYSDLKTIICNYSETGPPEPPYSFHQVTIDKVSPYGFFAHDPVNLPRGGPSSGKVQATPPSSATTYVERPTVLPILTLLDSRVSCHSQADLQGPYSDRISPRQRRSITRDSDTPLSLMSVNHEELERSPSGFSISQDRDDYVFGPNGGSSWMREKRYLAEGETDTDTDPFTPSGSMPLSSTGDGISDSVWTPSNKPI
Excerpt: as §1, §2

Series [7] has as its target KCNQ4 (Homo sapiens, UniProt P56696). As to the kind of experiment: cell-based. The class given is cell-based. The note with it: KCNQ4; 1 µM.
Excerpt: as §1, §2

The target in series [8] is T1, KCNQ2. Details: method as in PMID 11466425. The note with it: 10 µM RTG; cited from earlier work.

The structures appear in SMILES notation.

On to `CC(=O)O` [acetate], for which the “crossing of the blood brain barrier” value in series [1] is listed as “readily cross the blood brain barrier”.

`CCOC(=O)Nc1ccc(NCc2ccc(F)cc2)cc1N` [Retigabine, retigabine, reference compound]: in series [2], the “order of potency across KCNQ isoforms” value is “KCNQ3 > KCNQ2/3 > KCNQ2 > KCNQ4 > KCNQ5”. Besides, the “Non-normalized tail current V0.5” value in series [3] is reported as -51.6 ± 6.6 mV; in series [4] (KCNQ2/3, 1 µM) it was -41.7 ± 2.3 mV; in series [4] (KCNQ2/3, 10 µM) it was -61.8 ± 4.8 mV; in series [5] it was -45.8 ± 2.8 mV; in series [6], -63.9 ± 7.7 mV; in series [7], -10.2 ± 7.5 mV. Further, the “Normalized tail current V0.5” value in series [3] is on record as -51.7 ± 0.7 mV; in series [4] (KCNQ2/3, 1 µM) it was -41.9 ± 0.7 mV; in series [4] (KCNQ2/3, 10 µM) it was -61.4 ± 1.1 mV; in series [5], -46.0 ± 0.9 mV; in series [6] it was -61.9 ± 2.2 mV; in series [7] it was -9.7 ± 1.1 mV. Moreover, the “effects on KCNQ2/3” value in series [4] (1 µM alone) is reported as “negligible effects”. In series [4] (KCNQ2/3, 10 µM), this molecule returned a Slope of 6.7 ± 1.1 mV. The “shift of KCNQ2/3 activation V0.5” value in series [4] (RTG 10 µM) is −13 mV. For the same molecule, the “shift in midpoint voltage of activation” value in series [8] is on record as −24 mV.
